Test results taken from patent US12419308B2, “Phenylpyrazole insecticide compounds and compositions” (priority 2023, dated 2025).
Like-named read-outs stand apart in the source and are kept apart here.

What was measured:
[1] = system: Human Cryopreserved Hepatocytes; test: Metabolic stability in human cryopreserved hepatocytes; format: in vitro ADME
Procedure: The metabolic stability of the Compounds of Examples 1 and 4 is therefore evaluated to determine whether metabolic degradation results in metabolites of concern.
Briefly, Human Cryopreserved Hepatocytes (Gibco, lot. HUE125) are added to incubation wells in a 96-well assay plate at a density of 500,000 cells/mL in William's E Medium. […] The wells are incubated at 37° C. and stop solution is added to wells at time points: 0, 30, 60, 120, 240 min. The stop solution is ice-cold solution containing 0.5 μM labetalol in acetonitrile (100 μL/well) (2:1, vol/vol). Each time point is tested in triplicate. Analysis is carried out by LC-MS.
• Instrument: QExactive • Column: Luna Omega 1.6 μm polar C18 100 Å (150×2.1 mm) • Column temperature: 40° C. • Column No: 102+pre-column installed • Injection volume: 2 μl • Flux: 0.40 mL/min • Polarity: Negative • Fluent A: water Milli Q+0.1% FA • Fluent B: ACN+0.1% FA • Acquisition method: Full MS+DDS on the IL obtained with MassMetaSite (peak others ON).

[2] = system: adult worker honeybees, Apis mellifera L; details: contact
From the text: In accordance with OECD Test Guidelines No. 213 and 214, the test is considered valid if: (1) the average mortality of the control groups is ≤10% at the end of the test; and the average, control-corrected mortality of the reference item groups is ≥50% at the end of the test, at the tested dose (internal validity criteria according to POS BT200).
Young Apis mellifera L. worker honeybees are randomly collected in the morning of use or the day before from an adequately fed, healthy diseases-free and queen right beehive, not treated with chemical substances. Hives from an established apiary colony are used, and the colonies are inspected periodically, according to standard bee-keeping practices. All colonies are kept outside under field conditions and bees collect food from the environment. The last treatment against Varroa mites was done in November 2023. The bees are fed ad libitum with a water sucrose solution 50% w/v (or 500 g/L), prepared with tap water.
Adult worker honeybees are exposed to three increasing doses of the test item (see Table 2) by direct application to the thorax (droplets, see section 4.5.2). One control group is treated with propanol-water solution (ratio 80%-20%) in addition to test item groups.
Bee mortality is recorded after 4, 24 and 48 hours, and compared with the control value. If the mortality rate increases by more than 10% between 24 and 48 hours, whilst the control mortality rate remains ≤10%, the is extended to a maximum of 96 hours.
The test item is diluted in propanol-water solution (ratio 80%-20%) to prepare the contact solutions.
The bees used for the contact test are anaesthetized with carbon dioxide and individually treated by topical application of 2 μL of the test solutions onto the thorax using a micro applicator. The honeybees are then be moved to the cages and fed ad libitum with sucrose solution.
Disposable and well-ventilated cages with an internal volume not lower than 200 cm^3 are used. Each cage is equipped with a transparent lid, for a suitable observation of the bees from outside. The upper side of the cage has at least one hole for inserting the feeder: a syringe filled of 50% (w/v) aqueous sucrose solution is inserted in one hole.
The tests are conducted under the following conditions: (a) Temperature: 25.00[…]; (b) Relative humidity: 60.00[…], The honeybees are kept under constant darkness except during the assessments. Throughout the experimental phase, the temperature and relative humidity is continuously recorded with a dedicated data-logger with sensors located close to the test units.
The number of dead honeybees per cage is recorded after 4, 24 and 48 hours. If a prolonged observation period is required, further assessments are made every 24 hours, tip to a maximum duration of 96 hours. The amount of diet consumed per group is quantitatively estimated if treated diet will be left after 6 hours of exposure.
Data is summarized in tabular form, showing the number of live, dead and abnormal bees per experimental group. The mortality of each replicate is calculated as a percentage, comparing the number of dead bees to those introduced at the beginning. The mean value of the treated group is compared to the mean mortality of the respective control group(s) using the Abbott's formula modified by Schneider-Orelli (POS BT 200): […]

[3] = human hepatocytes, up to 240 min, 1 μM

N#Cc1nn(-c2c(Cl)cc(C(F)(F)F)cc2Cl)c2nc(O)cc(C(F)(F)F)c12 [Example 1, 1-(2,6-dichloro-4-(trifluoromethyl)phenyl)-6-hydroxy-4-(trifluoromethyl)-1H-pyrazolo[3,4-b]pyridine-3-carbonitrile]
Original compound still present ([1]; after 240 minutes, 1 μM, 500,000 cells/mL, 37° C.): approximately 95.5% | Metabolic stability (in words) [1, 3]: metabolically stable | Metabolite peaks observed [1, 3]: no particular peaks indicative of metabolites | % CM (4 hours) ([2]; group T1, dose 0.002 μg/bee): 0.0% | % CM (24 hours) ([2]; group T1, dose 0.002 μg/bee): 7.1% | % CM (48 hours) ([2]; group T1, dose 0.002 μg/bee): 0.0% | % CM (4 hours) ([2]; group T2, dose 0.004 μg/bee): 0.0% | % CM (24 hours) ([2]; group T2, dose 0.004 μg/bee): 0.0% | % CM (48 hours) ([2]; group T2, dose 0.004 μg/bee): 0.0% | % CM (4 hours) ([2]; group T3, dose 0.006 μg/bee): 0.0% | % CM (24 hours) ([2]; group T3, dose 0.006 μg/bee): 50.0% | % CM (48 hours) ([2]; group T3, dose 0.006 μg/bee): 57.7%
